In PubChem BioAssay AID1963451 (Molecular Pharmacology Branch, DTP, NCI, 2024):
Several values for one entry are separate records, joined by “and”; a condition that tells them apart may be missing. Equal entries are not always repeated. Blank lines part the entries; values can stand above or below the molecule they belong to.

Tested on: 521955-158-R6-J3-PDC complex spheroid growth, % test/control
Assay: Anticancer human tumor 521955-158-R6-J3-PDC patient-derived pancreatic carcinoma cell line growth inhibition [Asc]
Conditions: for viability, T/C: stronger effect = lower value
Experimental: Multicellular complex tumor spheroid response to apoptosis pathway targeting inhibitors Alrizomadlin, Pelcitoclax, and Dasminapant in combination with a variety of drugs and investigational agents in selected tumor cell lines
The MDM2 inhibitor alrizomadlin, the Bcl-2/Bcl-xL inhibitor pelcitoclax, and the IAPs inhibitor dasminapant were evaluated both individually and in combination with standard of care and investigational anticancer small molecules within a complex spheroid model of solid tumors. . Complex spheroids include a stromal component modeled by human endothelial cells (HUVEC) and fibroblasts modeled by human mesenchymal stem cells (MSCs). The concentration ranges selected for each drug and investigational agent were based upon clinically achievable concentrations if the clinical Cmax of the agent was known.
Compounds. The drugs and investigational agents: alrizomadlin (APG-115; NSC831270), pelcitoclax (APG-1252; NSC835773), dasminapant (APG-1387;NSC834197), TAK-243 (NSC785004), copanlisib (NSC809693), olaparib (NSC753686), talazoparib (NSC767125), cobimetinib (NSC 768068), eltanexor (KPT-8602, NSC 794443), abemaciclib (NSC 768073), sotorasib (NSC818433), adagrasib (NSC 831453), MRTX-1133 (NSC 836407), Iadademestat (ORY1001, NSC 806812), and RMC-4630 (NSC839698), were obtained from the NCI Developmental Therapeutics Program Chemical Repository. The FDA-approved anticancer drug set is available from the Developmental Therapeutics Program at https://dtp.cancer.gov/organization/dscb/obtaining/available plates.htm. […] The stock solutions were prepared in dimethyl sulfoxide (DMSO, Sigma-Aldrich, St. Louis, MO, cat. D2650) at 800-fold the tested concentration and stored at -70 degrees C prior to their use. All drugs and investigational agents were tested over a range starting from a high concentration at or near the clinical Cmax and decreasing in half-log increments. If the clinical Cmax for an agent had not been determined, the highest concentration tested was 10 microM.
The patient-derived cancer (PDC) cell lines include five colon adenocarcinomas: 186277-243-T-J2-PDC, 616215-338-R-J1-PDC, 439559-082-T-J2-PDC, 463943-066-T-J2-PDC, and 519858-162-T-J1-PDC; three pancreatic carcinomas: 323965-272-R-J2-PDC, 521955-158-R6-J3-PDC, and 521955-158-R2-J5-PDC; two uterine sarcomas: 327498-152-R-J2-PDC and 993429-296-R-J1-PDC; two rhabdomyosarcomas: 755483-174-R-J1-PDC and 772245-204-R-J1-PDC; two soft tissue sarcomas: 126254-015-R-J1-PDC and 494315-158-R-J1-PDC; two malignant fibrous histiocytomas: 317291-083-R-J1-PDC and 596521-263-R-J1-PDC; two breast carcinomas: 171881-019-R-J1-PDC and 885512-296-R-J2-PDC; and one ovarian carcinoma: 6556581-035-R-J-PDC were obtained from the NCI PDMR, (https://pdmr.cancer.gov). The established cell lines HSSY-2 synovial sarcoma (RRID:CVCL 8719), SYO-1 synovial sarcoma (RRID:CVCL_7146), MPNST malignant peripheral neural sheath tumor were obtained from the Sloan Kettering Institute. The following established cell lines were purchased from the American Type Culture Collection (ATCC, Manassas, VA), Sor the received from the NCI repository:, PANC-1 pancreatic carcinoma (CRL-1469, RRID:CVCL_0480), OVCAR-5 ovarian carcinoma (RRID:CVCL_1628), OVCAR-8 ovarian carcinoma (RRID:CVCL_1629), , MCF-7 breast carcinoma (CRL-12584, RRID:CVCL_0031), MDA-MB-231 breast carcinoma (CRL-12532, RRID:CVCL_0062), NCI-H1876 small cell lung carcinoma (CRL-5902, RRID:CVCL_1503), NCI-H510A small cell lung carcinoma (HTB-184, RRID:CVCL_1565), NCI-H1417 (CRL-5869, RRID:CVCL_1469), and NCI-H196 small cell lung carcinoma (CRL-5823, RRID:CVCL_1509). Dr. Peter Houghton (Greehey Children's Cancer Research Institute, University of Texas Health Science Center, San Antonio, TX) provided Rh-18 rhabdomyosarcoma (RRID:CVCL_1659). Pooled donor human umbilical vein endothelial cells (HUVEC, Lonza, cat. CC-2519) and human mesenchymal stem cells (hMSC, Lonza, cat. PT-2501) were purchased from Lonza (Walkersville, MD).
Cell Culture. […]
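Note: spheroids exposed to compounds for 7 days.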
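Throughout, for viability, T/C: 100% = DMSO vehicle control wells.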

IC50 (curve of first compound, second compound 0.0316 µM): > 10000 nM
IC50 (curve of first compound, second compound 0.1 µM): > 10000 nM
IC50 (curve of first compound, second compound 0.316 µM): < 31.6 nM
IC50 (curve of first compound, second compound 1 µM): < 31.6 nM
IC50 (curve of first compound, second compound 3.16 µM): < 31.6 nM
IC50 (curve of first compound, second compound 10 µM): < 31.6 nM
Structure (SMILES): C=CC(=O)N1CCN(c2nc(=O)n(-c3c(C)ccnc3C(C)C)c3nc(-c4c(O)cccc4F)c(F)cc23)C(C)C1 (centres undefined) + Cc1c(S(C)(=O)=O)c(-c2cc(F)cc(N3CCN(c4ccc(NS(=O)(=O)c5ccc(NC(CCN6CCC(C(=O)OCCCP(=O)(O)O)CC6)CSc6ccccc6)c(S(=O)(=O)C(F)(F)F)c5)cc4)CC3)c2)c(-c2ccc(Cl)cc2)n1C(C)C
viability, T/C (second compound 0.0316 µM, first compound 0.0316 µM): 84.4%
viability, T/C (second compound 0.0316 µM, first compound 0.1 µM): 84%
viability, T/C (second compound 0.0316 µM, first compound 0.316 µM): 84.6%
viability, T/C (second compound 0.0316 µM, first compound 1 µM): 80.3%
viability, T/C (second compound 0.0316 µM, first compound 3.16 µM): 79.7%
viability, T/C (second compound 0.0316 µM, first compound 10 µM): 79.7%
viability, T/C (second compound 0.1 µM, first compound 0.0316 µM): 72.2%
viability, T/C (second compound 0.1 µM, first compound 0.1 µM): 72.3%
viability, T/C (second compound 0.1 µM, first compound 0.316 µM): 67.6%
viability, T/C (second compound 0.1 µM, first compound 1 µM): 68.4%
viability, T/C (second compound 0.1 µM, first compound 3.16 µM): 59.6%
viability, T/C (second compound 0.1 µM, first compound 10 µM): 50.7%
viability, T/C (second compound 0.316 µM, first compound 0.0316 µM): 47.8%
viability, T/C (second compound 0.316 µM, first compound 0.1 µM): 48.4%
viability, T/C (second compound 0.316 µM, first compound 0.316 µM): 42.5%
viability, T/C (second compound 0.316 µM, first compound 1 µM): 46.3%
viability, T/C (second compound 0.316 µM, first compound 3.16 µM): 38.3%
viability, T/C (second compound 0.316 µM, first compound 10 µM): 29.2%
viability, T/C (second compound 1 µM, first compound 0.0316 µM): 45.6%
viability, T/C (second compound 1 µM, first compound 0.1 µM): 36.8%
viability, T/C (second compound 1 µM, first compound 0.316 µM): 41.8%
viability, T/C (second compound 1 µM, first compound 1 µM): 33.7%
viability, T/C (second compound 1 µM, first compound 3.16 µM): 23.6%
viability, T/C (second compound 1 µM, first compound 10 µM): 19.8%
viability, T/C (second compound 3.16 µM, first compound 0.0316 µM): 23.1%
viability, T/C (second compound 3.16 µM, first compound 0.1 µM): 22.8%
viability, T/C (second compound 3.16 µM, first compound 0.316 µM): 17.4%
viability, T/C (second compound 3.16 µM, first compound 1 µM): 15.6%
viability, T/C (second compound 3.16 µM, first compound 3.16 µM): 12.6%
viability, T/C (second compound 3.16 µM, first compound 10 µM): 7.39%
viability, T/C (second compound 10 µM, first compound 0.0316 µM): 12.7%
viability, T/C (second compound 10 µM, first compound 0.1 µM): 9.59%
viability, T/C (second compound 10 µM, first compound 0.316 µM): 12.5%
viability, T/C (second compound 10 µM, first compound 1 µM): 9.66%
viability, T/C (second compound 10 µM, first compound 3.16 µM): 23.2%
viability, T/C (second compound 10 µM, first compound 10 µM): 8.51%

IC50 (curve of compound): > 3000 nM
Structure (SMILES): Cc1nc(N2CCC3(CC2)COC(C)C3N)c(CO)nc1Sc1ccnc(N)c1Cl (centres undefined)
viability, T/C (compound 0.00949 µM): 89.6% and 113% and 112%
viability, T/C (compound 0.03 µM): 90.4% and 106% and 101%
viability, T/C (compound 0.0949 µM): 83.9% and 93.1% and 97%
viability, T/C (compound 0.3 µM): 84.7% and 97.1% and 94.5%
viability, T/C (compound 0.949 µM): 72.8% and 94.4% and 71.6%
viability, T/C (compound 3 µM): 57.9% and 89.5% and 90.1%
